According to US8536160B2, “Azaheterocyclyl derivatives of androstanes and androstenes as medicaments for cardiovascular disorders” (priority 2006, dated 2013):
Where a name gives a salt, the structure may show the parent alone. Read-outs that look alike come from different tables or passages of the source.

Experiments:
anesthetized guinea-pig = test: Inotropic effect and lethal dose, slow intravenous infusion in anesthetized guinea-pig; type: in vivo; set-up: Maximum dose infused: unit not given here; conditions: for % decrease from Emax after 20 min from the end of the infusion: duration of the inotropic effect; for Maximum dose infused: maximum dose infused in the survived animals; for Emax / ED80 / ED (max): Cavia porcellus, iv, 1.5 h; for Emax: read-out: Emax % increase in +dP/dTmax; for ED80: read-out: ED80 (inotropic potency, dose increasing +dP/dTmax by 80%); for ED (max): read-out: EDmax (dose inducing maximum positive inotropic effect)
[1] = target: Dog Kidney Na+, K+-ATPase (Canis lupus familiaris, UniProt P50997); test: Inhibition of the enzymatic activity of purified Na+,K+-ATPase (hydrolysis of 32P-ATP); type: biochemical
[2] = slow i.v. infusion over 90 minutes, anesthetized guinea-pig
[3] = slow i.v. infusion over 90 minutes, anesthetized guinea-pig, maximum increase in contractile force
[4] = slow i.v. infusion over 90 minutes
[5] = read-out: Na+, K+-ATPase Inhibition IC50
[6] = dog kidney enzyme, hydrolysis of 32P-ATP in presence and absence of compound, read-out: Na+, K+-ATPase Inhibition IC50

Row | Compound | IC50 ([1]; Na+, K+-ATPase Inhibition IC50) [nM] | IC50 [1, 6] [nM] | also measured
1 | C[C@]12CCC(=NO[C@@H]3CCNC3)C[C@@H]1[C@@H](C(N)=O)C[C@@H]1[C@@H]2CC[C@]2(C)C(=O)CC[C@@H]12.Cl [I-at, (Z,E) 3-(3-(R)-Pyrrolidinyloxyimino)-6α-carbamoylandrostane-17-one hydrochloride] |  |  | % decrease from Emax after 20 min from the end of the infusion (anesthetized guinea-pig; anesthetized guinea-pig): 16%; Dead/treated (anesthetized guinea-pig; [2]): 0/4; ED80 (inotropic potency, dose increasing +dP/dTmax by 80%) (anesthetized guinea-pig; [2]): 2.21 µmol/kg; EDmax (dose inducing maximum positive inotropic effect) (anesthetized guinea-pig; [2]): 8.82 µmol/kg; Emax % increase in +dP/dTmax (anesthetized guinea-pig; [3]): 109%; Maximum dose infused (anesthetized guinea-pig; [4]): 25.0; IC50 [1, 5]: 140 nM
2 | C=C1C[C@H]2[C@@H]3CCC(=O)[C@@]3(C)CC[C@@H]2[C@@]2(C)CCC(=NO[C@@H]3CCNC3)C[C@]12O (mixture of isomers) [I-bh, (E,Z) 3-[3′-(R)-Pyrrolidinyl]oxyimino-5α-hydroxy-6-methylenandrostane-17-one hydrochloride] | 12 |  | Emax (anesthetized guinea-pig; [3]): 173%; ED80 (anesthetized guinea-pig; [2]): 1.91 µmol/kg; ED (max) (anesthetized guinea-pig; [2]): 3.8 µmol/kg; % decrease from Emax after 20 min from the end of the infusion (anesthetized guinea-pig; anesthetized guinea-pig): 63%; Dead/treated (anesthetized guinea-pig; [2]): 0/3; Maximum dose infused (anesthetized guinea-pig; [4]): 6.4
3 | COC(=O)C1CC2C3CCC(=O)C3(C)CCC2C2(C)CCC(=NOC3CCNC3)CC12 (mixture of isomers) [I-au, (Z,E) 3-(3-(R)-Pyrrolidinyloxyimino)-6α-methoxycarbonylandrostane-17-one hydrochloride] |  | 160 | Emax (anesthetized guinea-pig; [3]): 164%; ED80 (anesthetized guinea-pig; [2]): 11 µmol/kg; ED (max) (anesthetized guinea-pig; [2]): 23.3 µmol/kg; % decrease from Emax after 20 min from the end of the infusion (anesthetized guinea-pig; anesthetized guinea-pig): 58%; Dead/treated (anesthetized guinea-pig; [2]): 0/4; Maximum dose infused (anesthetized guinea-pig; [4]): 50.3
4 | CO/N=C1\C[C@H]2[C@@H]3CCC(=O)[C@@]3(C)CC[C@@H]2[C@@]2(C)CC/C(=N/O[C@@H]3CCN(C)C3)C[C@]12O [I-bz, (Z) 3-[3′-(R)-(1-Methyl)pyrrolidinyl]oxyimino)-5α-hydroxy-6-(E)-methoxyiminoandrostane-17-one fumarate] |  | 94000 | 
5 | C=C1C[C@H]2[C@@H]3CCC(=O)[C@@]3(C)CC[C@@H]2[C@@]2(C)CC/C(=N/O[C@H]3CCN(C)C3)C[C@]12O [I-bn, (Z) 3-[3′-(S)-(1-Methyl)pyrrolidinyl]oxyimino)-5α-hydroxy-6-methyleneandrostane-17-one fumarate] | 95000 |  | 
6 | C=C1C[C@H]2[C@@H]3CCC(=O)[C@@]3(C)CC[C@@H]2[C@@]2(C)CC/C(=N\O[C@H]3CCNC3)C[C@]12O [I-bj, (E) 3-[3′-(S)-Pyrrolidinyl]oxyimino-5α-hydroxy-6-methyleneandrostane-17-one fumarate] | 480 |  | 
7 | C[C@]12CC[C@H](OC(=O)C3CNC3)CC1C(=O)C[C@@H]1[C@@H]2CC[C@]2(C)C(=O)CC[C@@H]12 (stereo partly drawn) [I-cx, 3β-(3-Azetidincarbonyloxy)androstane-6,17-dione hydrochloride] | 4200 |  | 
8 | (E) 3-[3-(R)-Pyrrolidinyl]oxyiminoandrostane-6,7-dione hydrochloride [I-af] |  |  | IC50 [1, 5]: 16 nM
9 | CC12CCC3C(C1CCC2=O)C1(CC1)CC1CC(=NOC2CCNC2)CCC13C (mixture of isomers) [I-co, (Z,E) 3-(3′-(R)-Pyrrolidinyloxyimino)-7-(spirocyclopropane)androstane-17-one hydrochloride] | 24 |  | 
10 | CC12CCC3C(C(CO)CC4CC(=NOC5CCNC5)CCC43C)C1CCC2=O (mixture of isomers) [I-ch, (E,Z) 3-[3′-(R)-Pyrrolidinyl]oxyimino-7α-hydroxymethylandrostane-17-one hydrochloride] |  | 160 | 
11 | CON=C1CC2C3CCC(=O)C3(C)CCC2C2(C)CCC(=NOC3CCNC3)CC12 (single isomer, unassigned) [I-bd, hydrochloride] | 18 |  | 
12 | CC12CCC3C(CC(CO)C4CC(=NOC5CCNC5)CCC43C)C1CCC2=O (mixture of isomers) [I-ar, (E,Z) 3-[3-(R)-Pyrrolidinyl]oxyimino-6α-hydroxymethylandrostan-17-one hydrochloride] |  | 26 | 
13 | C=C1CC2C3CCC(=O)C3(C)CCC2C2(C)CCC(=NOC3CCNC3)CC12 (mixture of isomers) [I-aq, (E,Z) 3-[3-(R)-Pyrrolidinyl]oxyimino-6-methyleneandrostane-17-one hydrochloride] | 46 |  | 
14 | CN1CCC(ON=C2CCC3(C)C(C2)C(=O)CC2C4CCC(=O)C4(C)CCC23)C1 (single isomer, unassigned) [I-al] | 1300 |  | 
15 | CC12CCC3C(CC(=O)C4CC(=NOC5CNC5)CCC43C)C1CCC2=O (mixture of isomers) [I-ab] | 260 |  | 
16 | C[C@H]1C[C@@H]2[C@H](CC[C@]3(C)C(=O)CC[C@@H]23)[C@@]2(C)CC/C(=N\O[C@@H]3CCNC3)CC12 (stereo partly drawn) [I-aw, (E) 3-[3-(R)-Pyrrolidinyl]oxyimino-6α-methylandrostane-17-one fumarate] | 340 |  | 
17 | CO/N=C1\C[C@H]2[C@@H]3CCC(=O)[C@@]3(C)CC[C@@H]2[C@@]2(C)CC/C(=N/O[C@H]3CCN(C)C3)C[C@]12O [I-bx, (Z) 3-[3′-(S)-(1-Methyl)pyrrolidinyl]oxyimino)-5α-hydroxy-6-(E)-methoxyiminoandrostane-17-one fumarate] |  | 96000 | 
18 | CC12CCC3C(C(CO)CC4CC(=NOC5CCNC5)CCC43C)C1CCC2=O (mixture of isomers) [I-ci, (E,Z) 3-[3′-(R)-Pyrrolidinyl]oxyimino-7β-hydroxymethylandrostane-17-one hydrochloride] |  | 330 | 

Row | Compound | IC50 ([1]; Na+, K+-ATPase Inhibition IC50) [nM] | IC50 [1, 6] [nM] | also measured
19 | CC1CC2CC(=NOC3CCNC3)CCC2(C)C2CCC3(C)C(=O)CCC3C12 [I-cm, (E) 3-[3′-(R)-Pyrrolidinyl]oxyimino-7β-methylandrostane-17-one hydrochloride] | 140 |  | 
20 | 3β-(3-(R,S)-Piperidinylcarbonyloxy)androstane-6,7-dione hydrochloride [I-cv] |  |  | IC50 [1, 5]: 92000 nM
21 | C=CCON=C1CC2CC(=NOC3CCNC3)CCC2(C)C2CCC3(C)C(=O)CCC3C12 (mixture of isomers) [I-cf, (E,Z) 3-[3′-(R)-Pyrrolidinyl]oxyimino-7-(E)-allyloxyiminoandrostane-17-one fumarate] |  | 4000 | 
22 | CC12CCC3C(CC(=O)C4CC(=NOC5CCNC5)CCC43C)C1CCC2=O (single isomer, unassigned) [I-ad, hydrochloride] | 830 |  | 
23 | 3α-[2-(Azetidin-3-yl)-(Z)-vinyl]androstane-6,7-dione formate [I-dh] |  |  | IC50 [1, 5]: 830 nM
24 | C=C1C[C@H]2[C@@H]3CCC(=O)[C@@]3(C)CC[C@@H]2[C@@]2(C)CC/C(=N/O[C@H]3CCNC3)C[C@]12O [I-bi, (Z) 3-[3′-(S)-Pyrrolidinyl]oxyimino-5α-hydroxy-6-methyleneandrostane-17-one fumarate] | 6000 |  | 
25 | COCC1CC2CC(=NOC3CCNC3)CCC2(C)C2CCC3(C)C(=O)CCC3C12 (mixture of isomers) [I-dm, (E,Z) 3-[3-(R)-Pyrrolidinyl]oxyimino-7α-methoxymethylandrostane-17-one hydrochloride] |  | 8100 | 
26 | CC12CCC3C(C(=O)CC4CC(=NOC5CCNC5)CCC43C)C1CCC2=O (single isomer, unassigned) [I-cb] | 89 |  | 
27 | CON=C1CC2C3CCC(=O)C3(C)CCC2C2(C)CCC(=NOC3CCN(C)C3)CC12 (mixture of isomers) [I-bf, (E,Z) 3-[3′-(S)-(1-Methyl)pyrrolidinyl]oxyimino-6-(E)-methoxyimino-androstane-17-one hydrochloride] |  | 7600 | 
28 | C=C1C[C@H]2[C@@H]3CCC(=O)[C@@]3(C)CC[C@@H]2[C@@]2(C)CC/C(=N\O[C@@H]3CCN(C)C3)C[C@]12O [I-bm, (E) 3-[3′-(R)-(1-Methyl)-pyrrolidinyl]oxyimino-5α-hydroxy-6-methyleneandrostane-17-one fumarate] |  |  | IC50 [1, 5]: 1400 nM
29 | 3β-(2(R,S)-Morpholinylcarbonyloxy)androstane-6,7-dione fumarate [I-cz] |  |  | IC50 [1, 5]: 12000 nM
30 | CC12CCC3C(CC(NC=O)C4CC(=NOC5CCNC5)CCC43C)C1CCC2=O (mixture of isomers) [I-ay, (E,Z) 3-[3-(R)-Pyrrolidinyl]oxyimino-6α-formamidoandrostane-17-one hydrochloride] |  | 41 | 
31 | C=C1C[C@H]2[C@@H]3CCC(=O)[C@@]3(C)CC[C@@H]2[C@@]2(C)CC/C(=N\O[C@H]3CCN(C)C3)C[C@]12O [I-bo, (E) 3-[3′-(S)-(1-Methyl)pyrrolidinyl]oxyimino)-5α-hydroxy-6-methyleneandrostane-17-one fumarate] | 21000 |  | 
32 | COCC1CC2C3CCC(=O)C3(C)CCC2C2(C)CCC(=NOC3CCNC3)CC12 (mixture of isomers) [I-as, (E,Z) 3-[3-(R)-Pyrrolidinyl]oxyimino-6α-methoxymethylandrostane-17-one hydrochloride] |  | 320 | 
33 | C[C@]12CC/C(=N\O[C@H]3CCNC3)CC1[C@@H](CO)C(=O)[C@@H]1[C@@H]2CC[C@]2(C)C(=O)CC[C@@H]12 (stereo partly drawn) [I-dj, (E)-3-[3-(S)-Pyrrolidinyl)oxyimino]-6α-hydroxymethylandrostane-7,17-dione fumarate] |  |  | IC50 ([1]; Na+, K+-ATPase Inhibition IC50, dog kidney enzyme, hydrolysis of 32P-ATP in presence and absence of compound): 36 nM
34 | C[C@]12CC/C(=N/O[C@H]3CCNC3)CC1[C@@H](CO)C(=O)[C@@H]1[C@@H]2CC[C@]2(C)C(=O)CC[C@@H]12 (stereo partly drawn) [I-di, (Z)-3-[3-(S)-Pyrrolidinyl)oxyimino]-6α-hydroxymethylandrostane-7,17-dione fumarate] | 210 |  | 
35 | CC12CCC3C(CC(O)C4CC(=NOC5CCNC5)CCC43C)C1CCC2=O (single isomer, unassigned) [I-ao, hydrochloride] | 2300 |  | 
36 | C[C@]12CCC(=NO[C@H]3CCNC3)C=C1/C(=N/O)C[C@@H]1[C@@H]2CC[C@]2(C)C(=O)CC[C@@H]12 [I-dv, (E,Z) 3-[3-(S)-Pyrrolidinyl]oxyimino-6-(E)-hydroxyiminoandrost-4-ene-17-one fumarate] |  |  | IC50 [1, 5]: 220 nM
